{"source": "ChEMBL document CHEMBL1133357", "about": "“Inhibition of neuraminidase with neuraminic acid C-glycosides” (Bioorg Med Chem Lett, 2000)"}
{"assay": "The compound was tested for its inhibitory activity against bacterial neuraminidase", "set-up": "species or system Clostridium perfringens", "units": {"Ki": "µM"}}
{"smiles": "CCCCCCCC(O)[C@]1(C(=O)O)C[C@@H](O)[C@@H](NC(C)=O)C(C(O)C(O)CO)O1", "note": "(stereo not given in full)", "Ki": 16}
{"smiles": "CC(=O)N[C@H]1C(C(O)C(O)CO)O[C@](C(=O)O)(C(C)(C)O)C[C@H]1O", "note": "(stereo not given in full)", "Ki": 29}
{"smiles": "CC(=O)NC1C(O)CC(C(=O)O)([C@@H](O)C2C(O)C(CO)OC(OC(=O)c3ccccc3)C2O)OC1C(O)C(O)CO", "note": "(stereo not given in full)", "Ki": 110}
{"smiles": "CC(=O)NC1C(O)CC(C(=O)O)([C@H](O)C2C(O)C(CO)OC(OC(=O)c3ccccc3)C2O)OC1C(O)C(O)CO", "note": "(stereo not given in full)", "Ki": 229}
{"smiles": "COC1OC(CO)C(O)C([C@@H](O)C2(C(=O)O)CC(O)C(NC(C)=O)C(C(O)C(O)CO)O2)C1O", "note": "(stereo not given in full)", "Ki": "> 1000"}
